According to ChEMBL document CHEMBL4483862, “Open-source discovery of chemical leads for next-generation chemoprotective antimalarials” (2018):

Test system: Plasmodium berghei
Experiment: Luciferase/luciferin-expressing antifolate-resistant parasites were used to infect a culture of HepG2 cells that were pre-incubated with compounds. Infected hepatocytes emit light due to the luciferase reaction. Assay results are presented as the percent inhibition of light emission compared to control. […]
Format: functional
Conditions: sporozoite; for IC90: read-out: LUCIFERASE INFECTION ASSAY - IC90

SMILES | IC90 [µM] | further results
O=C(O)COc1cc(-c2ccccc2)nc2ccccc12 | 4.53 | IC50 (HEPG2TOX_HILL_SLOPE 2.22, HEPG2TOX_R_SQUARED 0.747, PBLUC_HILL_SLOPE 12.7, PBLUC_R_SQUARED 0.342, read-out: LUCIFERASE INFECTION ASSAY - IC50): 3.81 µM
Oc1ccc(-c2cnc3cnc(-c4ccc(Cl)cc4)cn23)cc1 | 4.61 | IC50 (HEPG2TOX_HILL_SLOPE 2.24, HEPG2TOX_R_SQUARED 0.991, PBLUC_HILL_SLOPE 6.34, PBLUC_R_SQUARED 0.684, read-out: LUCIFERASE INFECTION ASSAY - IC50): 3.26 µM
CCC(C)NC(=O)c1c(NC(=O)c2cc(OC)cc(OC)c2)nc2ccc(C)cn12 (stereo not given) | 2.79 | IC50 (HEPG2TOX_HILL_SLOPE 2.24, HEPG2TOX_R_SQUARED 0.668, PBLUC_HILL_SLOPE 45.5, PBLUC_R_SQUARED 0.204, read-out: LUCIFERASE INFECTION ASSAY - IC50): 2.66 µM
CS(=O)(=O)c1ccc(CN2CCN3C(C(=O)Nc4ccc(F)c(Cl)c4)=COC3=NC2=O)cc1 | > 10 | IC50 (HEPG2TOX_HILL_SLOPE 2.2, HEPG2TOX_R_SQUARED 0.936, PBLUC_HILL_SLOPE 1.17, PBLUC_R_SQUARED 0.243, read-out: LUCIFERASE INFECTION ASSAY - IC50): > 10 µM
O=C(Nc1cccc(C(F)(F)F)c1)Nc1ncc([N+](=O)[O-])s1 | 2.73 | IC50 (HEPG2TOX_HILL_SLOPE 2.24, HEPG2TOX_R_SQUARED 0.981, PBLUC_HILL_SLOPE 1.72, PBLUC_R_SQUARED 0.576, read-out: LUCIFERASE INFECTION ASSAY - IC50): 0.759 µM
CCCCn1nc(C(=O)NNC(=O)Nc2ccc([N+](=O)[O-])cc2)c2ccccc2c1=O | > 10 | IC50 (HEPG2TOX_HILL_SLOPE 2.25, HEPG2TOX_R_SQUARED 0.286, read-out: LUCIFERASE INFECTION ASSAY - IC50): > 10 µM
Cc1ccsc1/C=N/Nc1ccc([N+](=O)[O-])cc1S(=O)(=O)Nc1ccc(Cl)cc1 | 3.77 | IC50 (HEPG2TOX_HILL_SLOPE 2.24, HEPG2TOX_R_SQUARED 0.991, PBLUC_HILL_SLOPE 12.9, PBLUC_R_SQUARED 0.191, read-out: LUCIFERASE INFECTION ASSAY - IC50): 3.18 µM
Clc1ccc(SCc2cc(N3CCCC3)nc(-c3ccccn3)n2)cc1 | 2.94 | IC50 (HEPG2TOX_HILL_SLOPE 2.23, HEPG2TOX_R_SQUARED 0.944, PBLUC_HILL_SLOPE 20.5, PBLUC_R_SQUARED 0.394, read-out: LUCIFERASE INFECTION ASSAY - IC50): 2.64 µM
Cc1ccc2nc(NC(=O)c3cc(F)ccc3F)c(C(=O)NC3CCCC3)n2c1 | 3 | IC50 (HEPG2TOX_HILL_SLOPE 2.24, HEPG2TOX_R_SQUARED 0.919, PBLUC_HILL_SLOPE 5.13, PBLUC_R_SQUARED 0.447, read-out: LUCIFERASE INFECTION ASSAY - IC50): 1.96 µM
O=C(Nc1nc2ccccn2c1C(=O)NC1CCCC1)c1cc(F)ccc1F | 6.63 | IC50 (HEPG2TOX_HILL_SLOPE 2.22, HEPG2TOX_R_SQUARED 0.565, PBLUC_HILL_SLOPE 4.18, PBLUC_R_SQUARED 0.45, read-out: LUCIFERASE INFECTION ASSAY - IC50): 3.92 µM
Cc1ccn2cc(C(=O)N3CCN(Cc4ccc(C(F)(F)F)cc4)CC3)nc2c1 | 3.77 | IC50 (HEPG2TOX_HILL_SLOPE 2.22, HEPG2TOX_R_SQUARED 0.687, PBLUC_HILL_SLOPE 18.4, PBLUC_R_SQUARED 0.747, read-out: LUCIFERASE INFECTION ASSAY - IC50): 3.35 µM
c1ccc2cc(-c3cc4ccccc4[nH]3)ccc2c1 | > 13.6 | IC50 (HEPG2TOX_HILL_SLOPE 2.23, HEPG2TOX_R_SQUARED 0.773, PBLUC_HILL_SLOPE 13.6, PBLUC_R_SQUARED 0.0646, read-out: LUCIFERASE INFECTION ASSAY - IC50): 12.2 µM
CC(=O)O[C@H]1C[C@@H](O[C@@H]2C(C)O[C@H](O[C@@H]3C(C)O[C@@H](O[C@H]4CC[C@@]5(C)C(CCC6C5C[C@@H](O)[C@]5(C)[C@@H](C7=CC(=O)OC7)CC[C@]65O)C4)C[C@@H]3O)C[C@@H]2O)OC(C)[C@H]1O[C@@H]1O[C@H](CO)[C@@H](O)[C@H](O)[C@H]1O (stereo not given in full) | > 3.35 | IC50 (HEPG2TOX_HILL_SLOPE 2.2, HEPG2TOX_R_SQUARED 0.634, PBLUC_HILL_SLOPE 2.28, PBLUC_R_SQUARED 0.618, read-out: LUCIFERASE INFECTION ASSAY - IC50): 1.57 µM
COc1ccc(-n2ncc(C(=O)Nc3nc(-c4ccc5ccccc5c4)cs3)c2C(F)(F)F)nn1 | 2.93 | IC50 (HEPG2TOX_HILL_SLOPE 2.25, 10.1, HEPG2TOX_R_SQUARED 0.989, 0.350, PBLUC_HILL_SLOPE 1.53, 1.53, PBLUC_R_SQUARED 0.682, 0.949, read-out: LUCIFERASE INFECTION ASSAY - IC50): 0.695 µM
N#CC(C(=O)c1ccc(Br)s1)c1nc2ccccc2s1 (stereo not given) | 3.8 | IC50 (HEPG2TOX_HILL_SLOPE 2.2, HEPG2TOX_R_SQUARED 0.729, PBLUC_HILL_SLOPE 11.3, 11.3, PBLUC_R_SQUARED 0.872, 0.879, read-out: LUCIFERASE INFECTION ASSAY - IC50): 3.13 µM
Cn1c(-c2ccccc2)nc2cnc(-c3cccc(Cl)c3)cc21 | 3.69 | IC50 (HEPG2TOX_HILL_SLOPE 2.23, HEPG2TOX_R_SQUARED 0.754, PBLUC_HILL_SLOPE 11.6, PBLUC_R_SQUARED 0.591, read-out: LUCIFERASE INFECTION ASSAY - IC50): 3.06 µM
COc1cccc(-c2cc3c(Nc4cccc(C(C)C)c4)nccc3[nH]2)c1 | 2.26 | IC50 (HEPG2TOX_HILL_SLOPE 2.2, HEPG2TOX_R_SQUARED 0.959, PBLUC_HILL_SLOPE 4.36, PBLUC_R_SQUARED 0.354, read-out: LUCIFERASE INFECTION ASSAY - IC50): 1.36 µM
O=C(Nc1ccccc1C(=O)Nc1nc2ccccc2[nH]1)c1cccs1 | > 10 | IC50 (HEPG2TOX_HILL_SLOPE 2.23, HEPG2TOX_R_SQUARED 0.95, read-out: LUCIFERASE INFECTION ASSAY - IC50): > 10 µM
COc1ccccc1NC(=O)/C=c1\s/c(=C\c2ccc(-c3ccccc3F)o2)c(=O)n1C | 3.75 | IC50 (HEPG2TOX_HILL_SLOPE 2.21, HEPG2TOX_R_SQUARED 0.937, PBLUC_HILL_SLOPE 21.9, PBLUC_R_SQUARED 0.468, read-out: LUCIFERASE INFECTION ASSAY - IC50): 3.39 µM
CN(CC(=O)Nc1ccc(Cl)c(C(F)(F)F)c1)c1nc(CN2CCCCC2)nc2sc3c(c12)CCCC3 | 9.99 | IC50 (HEPG2TOX_HILL_SLOPE 2.23, HEPG2TOX_R_SQUARED 0.93, PBLUC_HILL_SLOPE 4.09, PBLUC_R_SQUARED 0.44, read-out: LUCIFERASE INFECTION ASSAY - IC50): 5.84 µM
OCc1ccc(-c2cn3c(-c4ccc5ncccc5c4)cnc3cn2)cc1 | 3.45 | IC50 (HEPG2TOX_HILL_SLOPE 2.22, HEPG2TOX_R_SQUARED 0.955, PBLUC_HILL_SLOPE 5.03, PBLUC_R_SQUARED 0.612, read-out: LUCIFERASE INFECTION ASSAY - IC50): 2.23 µM
CC(Sc1nc(-c2ccccc2)c(-c2ccccc2)o1)C(=O)N1CCCC1 (stereo not given) | 1.48 | IC50 (HEPG2TOX_HILL_SLOPE 2.22, HEPG2TOX_R_SQUARED 0.0759, PBLUC_HILL_SLOPE 15.7, PBLUC_R_SQUARED 0.556, read-out: LUCIFERASE INFECTION ASSAY - IC50): 1.29 µM
Cc1cccc(Nc2nc(S(=O)(=O)c3ccc(Cl)cc3)c(Cl)s2)c1 | > 10 | IC50 (HEPG2TOX_HILL_SLOPE 2.2, HEPG2TOX_R_SQUARED 0.986, PBLUC_HILL_SLOPE 2.95, PBLUC_R_SQUARED 0.805, read-out: LUCIFERASE INFECTION ASSAY - IC50): 5.17 µM
COc1cc(OC)c(C(=O)/C=C/c2cccc(C#N)c2)cc1Cl | 4.08 | IC50 (HEPG2TOX_HILL_SLOPE 2.22, HEPG2TOX_R_SQUARED 0.565, PBLUC_HILL_SLOPE 10.9, PBLUC_R_SQUARED 0.489, read-out: LUCIFERASE INFECTION ASSAY - IC50): 3.33 µM
COc1ccccc1CNc1ccnc2cc(Cl)ccc12 | 3.82 | IC50 (HEPG2TOX_HILL_SLOPE 2.2, HEPG2TOX_R_SQUARED 0.908, PBLUC_HILL_SLOPE 13.6, PBLUC_R_SQUARED 0.424, read-out: LUCIFERASE INFECTION ASSAY - IC50): 3.25 µM
O=C(c1ccccc1)C1(c2nc3ccccc3s2)Sc2ccccc2C1=O (stereo not given) | 7.72 | IC50 (HEPG2TOX_HILL_SLOPE 2.24, HEPG2TOX_R_SQUARED 0.913, PBLUC_HILL_SLOPE 6.06, PBLUC_R_SQUARED 0.741, read-out: LUCIFERASE INFECTION ASSAY - IC50): 5.37 µM
O=C(CN(Cc1ccccc1)S(=O)(=O)c1ccc(Cl)cc1)Nc1nnc(C(F)(F)F)s1 | 3.96 | IC50 (HEPG2TOX_HILL_SLOPE 2.23, HEPG2TOX_R_SQUARED 0.869, PBLUC_HILL_SLOPE 13.4, PBLUC_R_SQUARED 0.351, read-out: LUCIFERASE INFECTION ASSAY - IC50): 3.37 µM
c1csc(-c2cnc3ccc(-c4ccc5c(c4)OCO5)nn23)c1 | > 10 | IC50 (HEPG2TOX_HILL_SLOPE 2.2, HEPG2TOX_R_SQUARED 0.859, PBLUC_HILL_SLOPE 2.18, PBLUC_R_SQUARED 0.249, read-out: LUCIFERASE INFECTION ASSAY - IC50): 4.56 µM
Clc1cccc(CNc2ncnc3sccc23)c1 | 9.83 | IC50 (HEPG2TOX_HILL_SLOPE 2.22, HEPG2TOX_R_SQUARED 0.937, PBLUC_HILL_SLOPE 2.28, PBLUC_R_SQUARED 0.461, read-out: LUCIFERASE INFECTION ASSAY - IC50): 3.76 µM
O=c1[nH]n(-c2ccc(Cl)c(Cl)c2)cc1-c1cccc(Cl)c1 | 5.52 | IC50 (HEPG2TOX_HILL_SLOPE 2.22, HEPG2TOX_R_SQUARED 0.951, PBLUC_HILL_SLOPE 6.3, PBLUC_R_SQUARED 0.659, read-out: LUCIFERASE INFECTION ASSAY - IC50): 3.89 µM
